Data: US8909483B2, “Direct or indirect diagnostic test for helminth infection” (priority 2002, dated 2014)

What was measured:
Assay type in all cases: in vivo, outbred Swiss mice
S. mansoni [1] = test: First vaccination experiment against S. mansoni (Example 4, FIG. 11); conditions: 70 μg peptide + MPL-TDM + Al(OH)3, inguinal route, challenge 100 cercariae 60 days after last immunization, perfused 45 days later
Method: Percentage protection, {(C−V)/C}×100}, of outbred Swiss mice is given after vaccination and subsequent challenge with 100 cercariae. From left to right the bars correspond to vaccination with peptide 1.2, peptide 1.3, peptide 1.4, peptide 2.1, peptide 2.2, peptide 2.3, peptide 2.4, peptide 2.5, peptide 2.6, r-Sm14, saline extract (SE) administered via the footpad, SE administered via the inguinal route, adjuvant and PBS respectively. All peptides were administered via the inguinal route. All peptides were administered in the presence of the adjuvant monophosphoryl lipid A+trehalose dicorynomycolate (MPL-TDM, Ribi ImmunoChem Research Inc.)+Alum.
In this experiment, outbreed Swiss mice were immunized with two intradermal/subcutaneous doses at an interval of 7 days followed by a booster injection, 21 days later. In the case of the peptides, a dose of 70 μg in the presence of the adjuvant monophosphoryl lipid A+trehalose dimycolate (MPL-TDM, Ribi ImmunoChem Research Inc.) and Al(OH)3 was used for all injections. […]
For assays of protection against S. mansoni, the animals were challenged subcutaneously with 100 cercariae, 60 days after the last immunization and perfused 45 days later. Overall protection was calculated by the formula {(C−V)/C}×100, where C is the average number of worms in control animals and V is the average number of worms in vaccinated animals.

F. hepatica = test: Fasciola hepatica protection assay (Example 6, FIG. 13); conditions: footpad, oral challenge 3 metacercariae, sacrifice 30 days after challenge
Excerpt: Due to the limited number of parasites used for challenge, animals are considered protected when they present sterile immunity, i.e. no adult worms are present after sacrifice. The mean protection is therefore given as the percentage of sterile animals at sacrifice. From left to right the bars correspond to peptide 1.1, peptide 1.3, peptide 1.4, peptide 2.1, peptide 2.5, r-Sm14+adjuvant, r-Sm14, adjuvant and PBS respectively. The adjuvant used was monophosphoryl lipid A+trehalose dicorynomycolate (MPL-TDM, Ribi ImmunoChem Research Inc.)+Alum.
This example refers to the use of some of the peptides described in Example 1 for vaccination against Fasciola hepatica in the Swiss mouse model. For the Fasciola hepatica protection assay each group (10 outbred Swiss mice/group) received three intradermal/subcutaneous doses via the footpad using an identical protocol to that described above for S. mansoni. Animals were vaccinated with either 70 μg of one of the sub-group of peptides described above (1.1, 1.3, 1.4, 2.1 and 2.5), emulsified in Ribi adjuvant (MPL-TDM) and Al(OH)3 or 10 μg of r-Sm14 (in the presence or absence of adjuvant), or an equivalent amount of adjuvant alone. Vaccinated and non-vaccinated control groups were simultaneously challenged orally with 3 metacercariae of F. hepatica 60 days after immunization and the sacrifice of all animals performed 30 days after challenge.

S. mansoni [2] = test: Second vaccination experiment against S. mansoni, footpad route (Example 5, FIG. 12); conditions: challenge 100 cercariae; for Percentage protection {(C−V)/C}×100: 70 μg peptide + MPL-TDM + Al(OH)3, footpad route, perfused 45 days later; for Performance (protection) compared with recombinant whole protein r-Sm14: footpad route
Method: Percentage protection is given as in FIG. 9. From left to right the bars correspond to peptide 1.1, peptide 1.3, peptide 1.4, peptide 2.1, peptide 2.5, r-Sm14, adjuvant and PBS respectively. In this experiment all samples were administered via the footpad. All peptides were administered in the presence of adjuvant: monophosphoryl lipid A+trehalose dicorynomycolate (MPL-TDM, Ribi ImmunoChem Research Inc.)+Alum.
In this experiment an identical protocol as Example 4 was employed for a sub-group of peptides including those which appeared most promising (1.1; 1.3; 1.4 and 2.1) together with 2.5 as a control, but employing the footpad as the route of administration.
Animals were challenged subcutaneously with 100 cercariae, 60 days after the last immunization and perfused 45 days later. Overall protection was calculated by the formula {(C−V)/C}×100, where C is the average number of worms in control animals and V is the average number of worms in vaccinated animals.

[3] = with adjuvant MPL-TDM + Al(OH)3, 70 μg peptide or 10 μg r-Sm14

For “EKFSESKLTFDGIVREVDGATMKTT (Oligopeptide derived from the fusion of two peptides from Schistosoma mansoni) [Peptide 2.5, Alternate modification to 2.3]”, the “Percentage protection {(C−V)/C}×100” value (S. mansoni [1]) was “no protection at all and zero”.

“EKNSESKLTQ (Oligopeptide from Schistosoma mansoni) [Peptide 2.1, Loop between β-strands 6 and 7 of Sm14, residues 85 to 94]” was tested, and the “Percentage protection (percentage of sterile animals at sacrifice)” value (F. hepatica; [3]) was 100%, the “Percentage protection {(C−V)/C}×100” value (S. mansoni [2]) was 50% and the “Performance (protection) compared with recombinant whole protein r-Sm14” value (S. mansoni [2]) was “equivalent to that seen for the recombinant whole protein”.

For “VTVGDVTGGSDAVMSKLG (Oligopeptide derived from the fusion of two peptides from Schistosoma mansoni) [Peptide 1.4, 1.3 modified]”, the “Percentage protection (percentage of sterile animals at sacrifice)” value (F. hepatica; [3]) was 100% and the “Performance (protection) compared with recombinant whole protein r-Sm14” value (S. mansoni [2]) was “equivalent to that seen for the recombinant whole protein”.

In the case of “KIGTSVFGTRTSKFDATEMVLDKEE [Peptide 2.6, 2.5 randomized; control peptide of identical amino acid composition]”, the “Percentage protection {(C−V)/C}×100” value (S. mansoni [1]) is reported as “no protection at all and zero”.

“VTVGDVTA (oligopeptide from Schistosoma mansoni) [Peptide 1.1, Loop between β-strands 9 and 10 of Sm14, residues 118 to 125]” was tested, and the “Percentage protection (percentage of sterile animals at sacrifice)” value (F. hepatica; [3]) was 66.7%, the “Percentage protection {(C−V)/C}×100” value (S. mansoni [2]) was roughly 50% and the “Performance (protection) compared with recombinant whole protein r-Sm14” value (S. mansoni [2]) was “equivalent to that seen for the recombinant whole protein”.

With “VTVGDVTANFDAVMSKLG (Oligopeptide derived from the fusion of two peptides from Schistosoma mansoni) [Peptide 1.3, Union of 1.1 and 1.2]” the “Percentage protection (percentage of sterile animals at sacrifice)” value (F. hepatica; [3]) was 50% and the “Performance (protection) compared with recombinant whole protein r-Sm14” value (S. mansoni [2]) was “equivalent to that seen for the recombinant whole protein”.

B1: r-Sm14: recombinant Sm14 protein expressed by the pRSETA-6×His-Sm14 construct in E. coli BL21(DE3) (protein, UniProt P29498 1-133, looked up)
14 kDa fatty acid-binding …: MSSFLGKWKLSESHNFDAVMSKLGVSWATRQIGNTVTPTVTFTMDGDKMTMLTESTFKNLSCTFKFGEEFDEKTSDGRNVKSVVEKNSESKLTQTQVDPKNTTVIVREVDGDTMKTTVTVGDVTAIRNYKRLS
modifications: 6xHis tag
In the case of B1, the “Percentage protection (percentage of sterile animals at sacrifice)” value (F. hepatica; absence of adjuvant, 10 μg r-Sm14) is reported as 100% and the “Percentage protection (percentage of sterile animals at sacrifice)” value (F. hepatica; [3]) is reported as 100%.
